Measured values: the supplement of paper PMC11208160

Assay: recombinant UMI read abundance after kanamycin selection (control-corrected) (log10(CPM+1)); higher = more efficient recombination; extreme values may be limits of the assay; sequences stand for … in AGTGCAGAGAAAATCGGCCAGTTTTCTCTGCCTGCAGTCCGCATGCCGTGGGACCCCTTGGGTTCTAACCTGTTGCCTAGATTTATGCAGCGGACTGCCTTTCTCCCAAAGTGATAAACCGG…AGGTTGGTTTCACT; site = the 11-nt donor
How it was run: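 For the IS621 bridge recombinase, a pooled Escherichia coli screen tested donor and donor-binding-loop pairs. Cells received the pair library together with a target plasmid encoding a fixed target and T7-inducible recombinase, then went onto IPTG (0.07 mM) plus kanamycin or unselected plates in duplicate. After PCR across the donor–target junction and sequencing, recombinant UMI counts were normalized to CPM, averaged, and scaled by control-derived factors. Each value is given as log10(CPM+1).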
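Further: IS621 bridge recombinase in Escherichia coli cells against a fixed T5 target plasmid.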

Sequence	recombinant UMI read abundance (log10)
TATGAGTCATGGACCGGTTTTCCCGGTAATCCGTATTTGCT (site TATGAGTCTAG)	2.74
TATGCAACATGGACCGGTTTTCCCGGTAATCCGTATTTGTT (site TATGCAACTAA)	0.0144
TATGCACCATGGACCGGTTTTCCCGGTAATCCGTATTTGGT (site TATGCACCTAC)	0.0323
TATGTGTCATGGACCGGTTTTCCCGGTAATCCGTATTTGAC (site AATGTGTCTGT)	0
TATGTGTCATGGACCGGTTTTCCCGGTAATCCGTATTTGAC (site CATGTGTCTGT)	0
TATGTGTCATGGACCGGTTTTCCCGGTAATCCGTATTTGAC (site GATGTGTCTGT)	0
TATGTGTCATGGACCGGTTTTCCCGGTAATCCGTATTTGAC (site TATGTGTCTGT)	0.884
TATTACACATGGACCGGTTTTCCCGGTAATCCGTATTTGCC (site TATTACACTGG)	2.37
TATTAGACATGGACCGGTTTTCCCGGTAATCCGTATTTGCG (site TATTAGACTCG)	1.03
TATTGGGCATGGACCGGTTTTCCCGGTAATCCGTATTTGTG (site TATTAGGCTCA)	0.0242
TATTGGGCATGGACCGGTTTTCCCGGTAATCCGTATTTGTG (site TATTCGGCTCA)	0.00589
TATTGGGCATGGACCGGTTTTCCCGGTAATCCGTATTTGTG (site TATTGGGCTCA)	0.226
TATTGGGCATGGACCGGTTTTCCCGGTAATCCGTATTTGTG (site TATTTGGCTCA)	0.0234
TATTGTGCATGGACCGGTTTTCCCGGTAATCCGTATTTGGT (site TATTGTGCTAC)	0.401
TATTTGTCATGGACCGGTTTTCCCGGTAATCCGTATTTGTG (site TATTTGACTCA)	0.0169
TATTTGTCATGGACCGGTTTTCCCGGTAATCCGTATTTGTG (site TATTTGCCTCA)	0.0214
TATTTGTCATGGACCGGTTTTCCCGGTAATCCGTATTTGTG (site TATTTGGCTCA)	0.0347
TATTTGTCATGGACCGGTTTTCCCGGTAATCCGTATTTGTG (site TATTTGTCTCA)	0.515
TATTTTGCATGGACCGGTTTTCCCGGTAATCCGTATTTGTG (site TATTTAGCTCA)	0.00468
TATTTTGCATGGACCGGTTTTCCCGGTAATCCGTATTTGTG (site TATTTCGCTCA)	0.0112
TATTTTGCATGGACCGGTTTTCCCGGTAATCCGTATTTGTG (site TATTTGGCTCA)	0
TATTTTGCATGGACCGGTTTTCCCGGTAATCCGTATTTGTG (site TATTTTGCTCA)	0.00898
TCAATTTCATGGACCGGTTTTCCCGGTAATCCGTATTTGGC (site TCAATTTCTGC)	0
TCACACTCATGGACCGGTTTTCCCGGTAATCCGTATTTGAT (site TCACACTCTAT)	2.38
TCACAGCCATGGACCGGTTTTCCCGGTAATCCGTATTTGCA (site TCACAGCCTTG)	0.816

Sequence	recombinant UMI read abundance (log10)
TCACCTGCATGGACCGGTTTTCCCGGTAATCCGTATTTGCG (site TCACCTGCTCG)	0.016
TCACCTGCATGGACCGGTTTTCCCGGTAATCCGTATTTGTT (site TCACCTGCTAA)	0.063
TCACGCACATGGACCGGTTTTCCCGGTAATCCGTATTTGCT (site TCACGCACTAG)	1.97
TCACGTACATGGACCGGTTTTCCCGGTAATCCGTATTTGAT (site TCACGTACTAT)	0.589
TCACGTCCATGGACCGGTTTTCCCGGTAATCCGTATTTGGC (site TCACGTCCTGC)	0
TCAGACTCATGGACCGGTTTTCCCGGTAATCCGTATTTGCA (site TCAAACTCTTG)	0.771
TCAGACTCATGGACCGGTTTTCCCGGTAATCCGTATTTGCA (site TCACACTCTTG)	1.19
TCAGACTCATGGACCGGTTTTCCCGGTAATCCGTATTTGCA (site TCAGACTCTTG)	2.95
TCAGACTCATGGACCGGTTTTCCCGGTAATCCGTATTTGCA (site TCATACTCTTG)	0.807
TCAGATACATGGACCGGTTTTCCCGGTAATCCGTATTTGGC (site TCAGATACTGC)	0
TCAGCATCATGGACCGGTTTTCCCGGTAATCCGTATTTGCA (site ACAGTATCTTG)	0.8
TCAGCATCATGGACCGGTTTTCCCGGTAATCCGTATTTGCA (site TCAGCATCTTG)	0.224
TCAGCCTCATGGACCGGTTTTCCCGGTAATCCGTATTTGAT (site TCAGCCTCTAT)	1.36
TCAGCGACATGGACCGGTTTTCCCGGTAATCCGTATTTGCG (site TCAGAGACTCG)	0.00361
TCAGCGACATGGACCGGTTTTCCCGGTAATCCGTATTTGCG (site TCAGCGACTCG)	1.37
TCAGCGACATGGACCGGTTTTCCCGGTAATCCGTATTTGCG (site TCAGGGACTCG)	0.0187
TCAGCGACATGGACCGGTTTTCCCGGTAATCCGTATTTGCG (site TCAGTGACTCG)	0.00864
TCAGCTGCATGGACCGGTTTTCCCGGTAATCCGTATTTGTG (site TAAGCTGCTCA)	0.0147
TCAGCTGCATGGACCGGTTTTCCCGGTAATCCGTATTTGTG (site TCAGCTGCTCA)	0.637
TCAGCTGCATGGACCGGTTTTCCCGGTAATCCGTATTTGTG (site TGAGCTGCTCA)	0.00568
TCAGCTGCATGGACCGGTTTTCCCGGTAATCCGTATTTGTG (site TTAGCTGCTCA)	0.0047
TCAGGCACATGGACCGGTTTTCCCGGTAATCCGTATTTGGC (site TCAGGCACTGC)	0.89
TCAGGGACATGGACCGGTTTTCCCGGTAATCCGTATTTGCG (site TCAGAGACTCG)	0.74
TCAGGGACATGGACCGGTTTTCCCGGTAATCCGTATTTGCG (site TCAGCGACTCG)	0.0114
TCAGGGACATGGACCGGTTTTCCCGGTAATCCGTATTTGCG (site TCAGGGACTCG)	1.03

Sequence	recombinant UMI read abundance (log10)
TCAGGGACATGGACCGGTTTTCCCGGTAATCCGTATTTGCG (site TCAGTGACTCG)	0.0229
TCAGTAACATGGACCGGTTTTCCCGGTAATCCGTATTTGTA (site TCAGTAACTTA)	1.71
TCAGTAGCATGGACCGGTTTTCCCGGTAATCCGTATTTGGC (site TCAGTAGCTGC)	1.54
TCAGTTCCATGGACCGGTTTTCCCGGTAATCCGTATTTGAA (site TCAGTTCCTTT)	0.398
TCAGTTTCATGGACCGGTTTTCCCGGTAATCCGTATTTGCA (site ACAGTATCTTG)	0.0288
TCAGTTTCATGGACCGGTTTTCCCGGTAATCCGTATTTGCA (site TCAGTTTCTTG)	1.14
TCATACACATGGACCGGTTTTCCCGGTAATCCGTATTTGCA (site TCATACACTTG)	2.45
TCATACACATGGACCGGTTTTCCCGGTAATCCGTATTTGCA (site TCATACCCTTG)	0.302
TCATACACATGGACCGGTTTTCCCGGTAATCCGTATTTGCA (site TCATACGCTTG)	1.36
TCATACACATGGACCGGTTTTCCCGGTAATCCGTATTTGCA (site TCATACTCTTG)	1.5
TCATACCCATGGACCGGTTTTCCCGGTAATCCGTATTTGTG (site TCATACCCTCA)	0
TCATACTCATGGACCGGTTTTCCCGGTAATCCGTATTTGGA (site TCATACTCTTA)	0.26
TCATACTCATGGACCGGTTTTCCCGGTAATCCGTATTTGGA (site TCATACTCTTC)	1.76
TCATACTCATGGACCGGTTTTCCCGGTAATCCGTATTTGGA (site TCATACTCTTG)	0
TCATACTCATGGACCGGTTTTCCCGGTAATCCGTATTTGGA (site TCATACTCTTT)	1.17
TCATACTCATGGACCGGTTTTCCCGGTAATCCGTATTTGTA (site TCATACTCTTA)	1.51
TCATACTCATGGACCGGTTTTCCCGGTAATCCGTATTTGTA (site TCATACTCTTC)	0.00471
TCATACTCATGGACCGGTTTTCCCGGTAATCCGTATTTGTA (site TCATACTCTTG)	0
TCATACTCATGGACCGGTTTTCCCGGTAATCCGTATTTGTA (site TCATACTCTTT)	0.299
TCATAGACATGGACCGGTTTTCCCGGTAATCCGTATTTGAC (site TCATAGACTGT)	0.421
TCATAGGCATGGACCGGTTTTCCCGGTAATCCGTATTTGTT (site TCATAGGCTAA)	1.27
TCATAGTCATGGACCGGTTTTCCCGGTAATCCGTATTTGCA (site TCATAATCTTG)	2.41
TCATAGTCATGGACCGGTTTTCCCGGTAATCCGTATTTGCA (site TCATACTCTTG)	0.653
TCATAGTCATGGACCGGTTTTCCCGGTAATCCGTATTTGCA (site TCATAGTCTTG)	2.25
TCATAGTCATGGACCGGTTTTCCCGGTAATCCGTATTTGCA (site TCATATTCTTG)	0
